Measurements taken from article PMC5896373 (Molecular Pharmacology, 2018).
Residue numbers refer to the chain shown, from its start.

Tests used:
[1] = molecular target: T1, chimeric P2X7/1 receptor 210–217 (Homo sapiens, UniProt Q99572, G211E/I214K/I21V/INS213AAHM/L212V/M24R/N16P/N25R/P210E/Q22R/R20V/S23N/T19I/T217L/Y26L); design: method as in Allsopp et al., 2017; conditions: chimera 210–217; ref Allsopp et al., 2017; cited from earlier work
T1 construct: expressed in transfected cells; host or cells: Xenopus laevis oocytes (cRNA injection)
T1 sequence (Q99572 with tags, fused parts or gaps N16P/T19I/R20V/I21V/Q22R/S23N/M24R/N25R/Y26L/P210E/G211E/L212V/INS213AAHM/I214K/T217L): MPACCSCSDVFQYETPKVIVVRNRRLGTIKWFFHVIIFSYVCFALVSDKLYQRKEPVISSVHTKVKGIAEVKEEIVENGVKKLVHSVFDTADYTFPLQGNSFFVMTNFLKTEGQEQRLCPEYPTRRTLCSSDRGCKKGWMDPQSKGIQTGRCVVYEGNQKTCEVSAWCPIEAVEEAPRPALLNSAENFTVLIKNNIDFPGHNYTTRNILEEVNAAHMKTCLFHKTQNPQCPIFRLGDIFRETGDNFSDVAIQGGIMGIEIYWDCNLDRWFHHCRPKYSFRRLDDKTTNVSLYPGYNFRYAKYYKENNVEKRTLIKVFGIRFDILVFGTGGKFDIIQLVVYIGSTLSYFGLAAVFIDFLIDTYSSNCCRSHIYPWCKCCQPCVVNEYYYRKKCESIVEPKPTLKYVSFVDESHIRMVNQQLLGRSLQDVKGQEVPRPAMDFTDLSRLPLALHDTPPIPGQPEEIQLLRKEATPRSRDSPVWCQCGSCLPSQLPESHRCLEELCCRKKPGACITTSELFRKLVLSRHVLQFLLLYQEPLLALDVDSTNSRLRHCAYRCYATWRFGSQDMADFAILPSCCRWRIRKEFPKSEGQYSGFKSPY

P2X7R mutant Insert G99 = molecular target: T2, P2X7R mutant Insert G99 (Homo sapiens, UniProt Q99572, I21V/INS99D/M24R/N16P/N25R/Q22R/R20V/S23N/T19I/Y26L); design: method as in Allsopp et al., 2017; conditions: aspartic acid inserted between G99 and N100; ref Allsopp et al., 2017; cited from earlier work
T2 construct: expressed in transfected cells; host or cells: Xenopus laevis oocytes (cRNA injection)
T2 sequence (Q99572 with tags, fused parts or gaps N16P/T19I/R20V/I21V/Q22R/S23N/M24R/N25R/Y26L/INS99D): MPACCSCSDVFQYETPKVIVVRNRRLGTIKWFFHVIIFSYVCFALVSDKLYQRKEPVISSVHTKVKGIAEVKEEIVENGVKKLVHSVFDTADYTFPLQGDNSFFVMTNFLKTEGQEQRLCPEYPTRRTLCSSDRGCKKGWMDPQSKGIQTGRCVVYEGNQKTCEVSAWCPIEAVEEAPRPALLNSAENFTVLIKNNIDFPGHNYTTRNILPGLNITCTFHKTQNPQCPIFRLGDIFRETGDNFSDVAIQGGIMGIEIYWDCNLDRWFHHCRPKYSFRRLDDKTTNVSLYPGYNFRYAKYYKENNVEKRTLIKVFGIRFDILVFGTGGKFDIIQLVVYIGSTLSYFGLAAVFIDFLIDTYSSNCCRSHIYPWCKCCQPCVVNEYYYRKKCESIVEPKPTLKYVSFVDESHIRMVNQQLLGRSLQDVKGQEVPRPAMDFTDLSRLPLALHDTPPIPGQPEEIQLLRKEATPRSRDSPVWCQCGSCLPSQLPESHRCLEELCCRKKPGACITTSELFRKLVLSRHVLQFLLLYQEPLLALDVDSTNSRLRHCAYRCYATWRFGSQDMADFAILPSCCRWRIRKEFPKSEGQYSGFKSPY

P2X7R point mutant K110Y = molecular target: T3, P2X7R point mutant K110Y (Homo sapiens, UniProt Q99572, I21V/K110Y/M24R/N16P/N25R/Q22R/R20V/S23N/T19I/Y26L); design: method as in Allsopp et al., 2017; conditions: ref Allsopp et al., 2017; cited from earlier work
T3 construct: expressed in transfected cells; host or cells: Xenopus laevis oocytes (cRNA injection)
T3 sequence (Q99572 1-595 N16P/T19I/R20V/I21V/Q22R/S23N/M24R/N25R/Y26L/K110Y): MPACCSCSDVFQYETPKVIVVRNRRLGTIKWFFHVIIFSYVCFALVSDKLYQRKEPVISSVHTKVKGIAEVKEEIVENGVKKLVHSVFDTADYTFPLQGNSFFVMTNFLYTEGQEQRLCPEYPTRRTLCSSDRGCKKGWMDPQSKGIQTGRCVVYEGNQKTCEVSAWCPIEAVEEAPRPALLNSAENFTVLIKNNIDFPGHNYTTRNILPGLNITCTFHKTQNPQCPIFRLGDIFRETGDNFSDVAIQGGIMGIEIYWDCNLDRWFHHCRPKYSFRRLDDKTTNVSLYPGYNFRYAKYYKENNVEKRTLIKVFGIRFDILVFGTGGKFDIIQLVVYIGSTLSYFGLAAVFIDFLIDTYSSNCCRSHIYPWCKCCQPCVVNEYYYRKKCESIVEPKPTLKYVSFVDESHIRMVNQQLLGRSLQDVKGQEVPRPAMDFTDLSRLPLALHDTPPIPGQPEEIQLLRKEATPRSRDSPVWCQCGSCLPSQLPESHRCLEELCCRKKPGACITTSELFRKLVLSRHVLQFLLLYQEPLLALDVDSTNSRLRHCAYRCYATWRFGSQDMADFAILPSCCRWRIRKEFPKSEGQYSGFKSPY

[2] = system: P2X7R left flipper point mutant T283A; test: Two-electrode voltage clamp of ATP-evoked currents in Xenopus oocytes; assay type: cell-based, human
Method: Injected oocytes were stored at 16°C in ND96 buffer [in millimolar concentrations, NaCl 96, KCl 2, CaCl2 1.8, MgCl2 1, sodium pyruvate 5, and HEPES 5 (pH 7.6) supplemented with 50 μg/ml gentamycin and 50 μg/ml tetracycline]. Three to seven days postinjection two-electrode voltage clamp recordings were made from oocytes bathed in divalent-free ND96 buffer (in millimolar concentrations, NaCl 96, KCl 2, sodium pyruvate 5, HEPES 5, and 0.1 flufenamic acid, pH 7.6). Oocytes were voltage clamped at a holding potential of −60 mV with a GeneClamp500B amplifier (Molecular Devices).
Electrophysiological traces were digitized with a Digidata 1322A and collected using pCLAMP 8.2 software (Molecular Devices, Menlo Park, CA). An EC90 concentration of ATP was used to test antagonist sensitivity for the P2X7-2Nβ and mutant receptors [ATP sensitivity of the chimeras and mutants are reported in [Allsopp et al. (2017)]] to standardize for any changes in ATP sensitivity.
Inhibition by the antagonists was expressed as the percentage of the peak current amplitude of an EC90 concentration of ATP recorded before the application of antagonist (ATP gave reproducible responses to ATP in the absence of antagonist). […] Any significant differences from the P2X7-2Nβ control were calculated by one-way analysis of variance, followed by Dunnett’s test (using GraphPad Prism 6). […]

[3] = system: P2X7R left flipper point mutant N284A; test: as above; assay type: cell-based, human
Method: (§1) The production of the correct mutations and absence of coding errors was determined by DNA sequencing (Automated ABI Sequencing Service, University of Leicester, UK). cRNA was generated for the mutants and 50 nl (50 ng) was injected into manually defoliculated stage V Xenopus laevis oocytes using an Inject+Matic microinjector (J.A. Gabay, Inject+Matic, Geneva, Switzerland). Injected oocytes were stored at 16°C in ND96 buffer [in millimolar concentrations, NaCl 96, KCl 2, CaCl2 1.8, MgCl2 1, sodium pyruvate 5, and HEPES 5 (pH 7.6) supplemented with 50 μg/ml gentamycin and 50 μg/ml tetracycline]. Three to seven days postinjection two-electrode voltage clamp recordings were made from oocytes bathed in divalent-free ND96 buffer (in millimolar concentrations, NaCl 96, KCl 2, sodium pyruvate 5, HEPES 5, and 0.1 flufenamic acid, pH 7.6). Oocytes were voltage clamped at a holding potential of −60 mV with a GeneClamp500B amplifier (Molecular Devices).
Inhibition by the antagonists was expressed as the percentage of the peak current amplitude of an EC90 concentration of ATP recorded before the application of antagonist (ATP gave reproducible responses to ATP in the absence of antagonist). Inhibition curves were fitted with the Hill equation (variable slope) using GraphPad Prism 6 (GraphPad Software, San Diego, CA). […]

[4] = molecular target: T4, chimeric P2X7R with left flipper 280–284 of P2X4 (Homo sapiens, UniProt Q99572, D280T/I21V/K281R/M24R/N16P/N25R/N284E/Q22R/R20V/S23N/T19I/T282D/T283V/Y26L); conditions: chimera 280–284 of P2X4
T4 sequence (Q99572 1-595 N16P/T19I/R20V/I21V/Q22R/S23N/M24R/N25R/Y26L/D280T/K281R/T282D/T283V/N284E): T3 sequence (Q99572 1-595 N16P/T19I/R20V/I21V/Q22R/S23N/M24R/N25R/Y26L/K110Y) with Y110K, D280T, K281R, T282D, T283V, N284E
Method: as §1
Inhibition by the antagonists was expressed as the percentage of the peak current amplitude of an EC90 concentration of ATP recorded before the application of antagonist (ATP gave reproducible responses to ATP in the absence of antagonist). Inhibition curves were fitted with the Hill equation (variable slope) using GraphPad Prism 6 (GraphPad Software, San Diego, CA). […] Individual concentration-response curves were generated for individual experiments, and statistical analysis was carried out on the data generated. […] Data are shown as mean ± S.E.M. In all cases n ≥ 3 for all data points.

SMILES	effect on antagonist sensitivity [1]	effect on antagonist binding (P2X7R mutant Insert G99)	effect on antagonist sensitivity (P2X7R point mutant K110Y)	fold decrease in antagonist sensitivity/affinity relative to P2X7-2Nβ [2] [fold]	effect on antagonist sensitivity relative to P2X7-2Nβ [3]	fold decrease in antagonist sensitivity relative to P2X7-2Nβ [4] [fold]
Cl.Cl.O=C(CC12CC3CC(CC(C3)C1)C2)Nc1cccc2nc(NCCNCCO)ccc12 [AZ10606120, N-[2-[[2-[(2-hydroxyethyl)amino]ethyl]amino]-5-quinolinyl]-2-tricyclo[3.3.1.13,7]dec-1-ylacetamide dihydrochloride]	no change	little effect	increased			
COc1ccc(CC(=O)NC(N=C(NC#N)Nc2cccc3ncccc23)C(C)(C)C)cc1OC (stereo not drawn) [A740003, N-[1-[[(cyanoamino)(5-quinolinylamino)methylene]amino]-2,2-dimethylpropyl]-3,4-dimethoxybenzeneacetamide]				~4	no effect	~10
